In paper PMC12921516 (ACS Bio & Med Chem Au, 2025):
Where two headings read alike, the source gives them in different places.

Columns and labels:
[1] = test system: hPTP1B1–393; conditions: reported elsewhere; cited from earlier work
[2] = molecular target: T1, hTCPTP1–415 (Homo sapiens, UniProt P17706); assay: TCPTP inhibitory activity; type: biochemical; conditions: pNPP substrate; tested up to 100 μM
T1 construct: h TCPTP 1–415 IC 50 (μM ± S.D); made in house
T1 sequence (P17706 1-415): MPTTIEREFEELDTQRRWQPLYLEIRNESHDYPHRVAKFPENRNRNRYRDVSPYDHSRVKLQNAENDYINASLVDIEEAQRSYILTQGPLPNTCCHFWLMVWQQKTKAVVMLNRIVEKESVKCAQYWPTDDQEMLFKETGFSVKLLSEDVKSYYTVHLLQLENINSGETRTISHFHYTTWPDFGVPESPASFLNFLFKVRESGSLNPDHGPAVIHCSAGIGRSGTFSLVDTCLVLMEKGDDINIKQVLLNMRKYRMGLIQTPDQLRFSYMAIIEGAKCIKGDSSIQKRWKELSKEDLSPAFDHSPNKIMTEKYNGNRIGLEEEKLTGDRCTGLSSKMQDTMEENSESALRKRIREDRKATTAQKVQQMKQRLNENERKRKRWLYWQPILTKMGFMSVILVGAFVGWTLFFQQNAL
Experimental: The effectiveness and safety of a PTP1B inhibitor primarily depend on its selectivity, given that protein tyrosine phosphatases share significant structural homology within their catalytic domains. […] Ertiprotafib was also included in this study.
(§1) Aliquots of 0–10 μL of the test compounds (triplicate) were taken and incubated for 15 min at 37 °C with 85 μL of Tris buffer solution (50 mM, pH 6.8) containing PTP1B enzyme and 5 μL of p-nitrophenyl phosphate substrate (pNPP, 10 mM). The absorbance of the hydrolysis product, p-nitrophenol (pNP), was measured at 405 nm using a 96-microplate absorbance reader (Accuris SmartReader 96). The inhibitory activity was determined according to eq . %enzyme=(A405b/A405c)×100 1 Where: % enzyme is the percentage of inhibition for PTP1B or TCPTP
(§2) The IC50 was calculated using regression analysis, eq : %inhibition=A100/1+(I/IC50)^s 2 Where: A100: Maximum inhibition

[3] = molecular target: T2, hPTP1B1–400 (Homo sapiens, UniProt P18031); assay: Enzymatic kinetics studies (Lineweaver–Burk, model fitting); type: biochemical; conditions: for inhibition type: hPTP1B1–400, best fit model; for Km / Vmax: hPTP1B1–400 with inhibitor
T2 construct: h PTP1B 1–400 IC 50 (μM ± S.D); made in house
T2 sequence (P18031 1-400): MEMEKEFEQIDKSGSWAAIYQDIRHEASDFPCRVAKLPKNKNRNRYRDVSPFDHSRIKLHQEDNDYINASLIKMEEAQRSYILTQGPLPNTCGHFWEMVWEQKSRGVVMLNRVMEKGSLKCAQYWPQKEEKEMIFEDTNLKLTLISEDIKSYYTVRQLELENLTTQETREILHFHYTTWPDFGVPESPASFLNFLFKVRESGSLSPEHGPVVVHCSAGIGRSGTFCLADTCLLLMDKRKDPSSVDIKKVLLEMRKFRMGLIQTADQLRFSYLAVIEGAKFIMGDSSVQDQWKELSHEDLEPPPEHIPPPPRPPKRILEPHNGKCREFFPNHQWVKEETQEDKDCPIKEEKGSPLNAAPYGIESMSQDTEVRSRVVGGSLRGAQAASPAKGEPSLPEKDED
Experimental: Kinetic analyses were conducted using varying concentrations of substrate and inhibitor.
Five increasing concentrations of each inhibitor were tested, according to their previously determined IC50 values. The negative control was prepared by omitting the inhibitor in the presence of the enzyme and substrate. The Supporting Information includes detailed eqs (E1–E5) used to determine the kinetic parameters and mechanisms involved in PTP1B inhibition.
Equation 1 was used to obtain enzyme kinetic parameters by fitting data to the Michaelis-Menten model (Origin Pro
The equations defined for the following non-linear inhibition models were used to determine the mechanism of
PTP1B inhibition: competitive (E2), non-competitive (E3), uncompetitive (E4), and mixed (E5) (Origin Pro 2018 (64
(1+ ( ))(x05nh ) + (1+ ( )) (x05 nh)
Vmax is the maximum velocity, x is the substrate concentration, i is the inhibitor concentration, nh is the number of
Hill. Ki is the inhibition constant, and Km is the Michaelis constant.

[4] = test system: STZ-induced diabetic rats; conditions: earlier study of the group; cited from earlier work
[5] = test system: HFF-1 cells; assay: Cytotoxicity, Sulforhodamine B assay; type: cell-based, human; conditions: HFF-1 proliferation, 48-h incubation, 0.78 μM to 100 μM
Experimental: Given the significance of a drug candidate’s toxicity in relation to its inhibition potential, a cytotoxicity assay was conducted using Normal Human Foreskin Fibroblasts (HFF-1).
All assays were carried out in triplicate. Cell proliferation was determined by the Sulforhodamine B assay, and the half-maximal cytotoxic concentration (CC50) was determined by Probit analysis.

[6] = molecular target: T2, hPTP1B1–400; assay: PTP1B inhibition, pNPP hydrolysis, long form; type: biochemical; conditions: pNPP substrate, 15 min 37 °C, pH 6.8; ± S.D
Experimental: The inhibitory activity of PTP1B was assessed using the long form of the PTP1B enzyme (hPTP1B1–400). This enzyme comprises a highly conserved N-terminal catalytic domain, known as the PTP domain (PTP1B1–300), in addition to an intrinsically disordered regulatory domain (PTP1B301–400).
The IC50 values obtained from these tests are detailed in Table .
as §1, §2

[7] = molecular target: T1, hTCPTP1–415; conditions: read-out: hTCPTP1–415 IC50, cited from earlier work
[8] = molecular target: T2, hPTP1B1–400; conditions: footnote c: IC50 values retrieved from the reference; previously tested by our group; cited from earlier work
[9] = molecular target: T3, hPTP1B1–285 (Homo sapiens, UniProt P18031); conditions: footnote c: IC50 values retrieved from the reference; cited from earlier work
T3 construct: h PTP1B 1–285 IC 50 (μM ± S.D); made in house
T3 sequence (P18031 1-285): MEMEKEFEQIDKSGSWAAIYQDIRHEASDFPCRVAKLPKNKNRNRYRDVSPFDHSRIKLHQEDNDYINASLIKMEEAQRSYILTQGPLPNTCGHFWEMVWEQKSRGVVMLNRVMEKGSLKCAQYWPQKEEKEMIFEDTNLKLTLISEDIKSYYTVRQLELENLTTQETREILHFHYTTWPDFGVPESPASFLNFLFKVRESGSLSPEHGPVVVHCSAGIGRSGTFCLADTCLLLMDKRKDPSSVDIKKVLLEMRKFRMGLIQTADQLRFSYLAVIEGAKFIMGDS

[10] = test system: HepG2 cells; assay: Cell viability of HepG2 with crystal violet; type: cell-based, human; conditions: 1, 10, and 30 µM for 24, 48 and 72 h
Experimental: A 96-well plate was seeded with 3,000 HepG2 cells per well and incubated for 72 h. Subsequently, the cells were treated with test compounds at various concentrations for 24, 48, and 72 h. After incubation, the medium was removed, and 100 μL of 1% glutaraldehyde was added for 15 min. The glutaraldehyde was then removed, and 50 μL of 0.5% crystal violet (dissolved in 25% methanol) was added for 30 min. The crystal violet staining solution was subsequently removed, and the plate was thoroughly rinsed with tap water. The precipitate was dissolved in a 10% acetic acid solution, mixed for 15 min, and the absorbance was measured at 590 nm using a plate reader (xMark Microplate Spectrophotometer, Bio-Rad).
Figure S48. Cell viability assessment by crystal violet staining. HepG2 cell viability was evaluated after treatment with the respective compounds at concentrations of 1 , 10, and 30 µM for 24 , 48 and 72 hours. Bar graphs represent mean ± SEM. No significant differences were detected using ANOVA. […]

[11] = test system: HepG2 cells; assay: Western blotting, HepG2 normal model; type: cell-based, human; conditions: 24 h
Experimental: (§3) HepG2 cells were obtained directly from ATCC (HB-8065) and cultured in DMEM with low glucose, supplemented with fetal bovine serum, 100 U/mL penicillin G, and […] streptomycin. The media was freshly prepared and sterilized by filtration. Cells were maintained with a maximum of 10 passages before being discarded. For cell counting, the cells were washed twice with phosphate-buffered saline (PBS), trypsinized, and counted using a Neubauer chamber. For the insulin-resistant model, 75,000 cells per well were seeded in 6-well plates at 37 °C in 5% CO2 and cultured for 72 h. Subsequently, insulin (0.1 μM) was added to induce insulin resistance for 24 h. After this period, inhibitors were incubated for 24 h, followed by a final 30 min insulin stimulation (0.1 μM) before protein extraction. For the normal model, 75,000 cells per well were seeded in 6-well plates at 37 °C in 5% CO2 and cultured for 96 h. After that, the cells were incubated with the inhibitors for 24 h, followed by protein extraction.
(§4) Treated cells were washed twice with 1 mL of PBS, and proteins were extracted using 300 μL of a buffer solution containing 10% sodium deoxycholate in 10% TEAB, supplemented with a protease and phosphatase inhibitor cocktail. The extracts were heated at 80 °C for 5 min and dissociated by repeated passages through an insulin syringe. The cell extracts were centrifuged at 15,000 rpm for 15 min at 4 °C, and the supernatant was collected. Protein quantification was performed using the bicinchoninic acid assay, and aliquots were prepared for Western blotting. SDS-PAGE was conducted, and proteins were transferred onto a nitrocellulose membrane. The membrane was blocked with 10% skim milk in TBST for 1 h and incubated overnight with primary antibodies (1:400 dilution). Secondary antibodies conjugated to horseradish peroxidase were diluted 1:2,000, and the membranes were incubated for 1 h at room temperature. Blots were visualized using the ChemiDoc MP (Bio-Rad), and densitometric analysis was performed with ImageJ (U.S. National Institutes of Health). Statistical analyses were conducted using GraphPad Prism 8.0.
compounds at 24 h of treatment. β-actin was employed as loading control. b) Densitometric analysis of western blot images
employing ImageJ analysis software. Bar graphs represent the mean ± SEM of normalized values. The control levels were set to
1. Asterisks indicate statistical significance according to the Dunn test. p* < 0.05
(§5) (1 picture or pasted object on this page, not shown here)

[12] = test system: insulin-resistant HepG2 cells; assay: Western blotting, insulin-resistant HepG2 model; type: cell-based, human; conditions: 24 h
Experimental: as §3, §4
resistance model in HepG2 cells . a) Western blotting representative analysis (n=3) of PTP1B, p -AKT, p-IRS1 and p-STAT3 levels
of HepG2 cells treated with the compounds at 24 h of treatment. β-actin was employed as loading control. b) Densitometric
analysis of western blot images employing ImageJ analysis software. Bar graphs represent the mean ± SEM of normalized values.
The control levels were set to 1. Asterisks indicate statistical significance according to the Dunn test. p* < 0.05.
as §5

[13] = molecular target: T2, hPTP1B1–400; assay: PTP1B inhibition, pNPP hydrolysis, long form; type: biochemical

## Cc1cc(-c2c3ccccc3c(Br)c3sc(C)c(C)c23)cc(C)c1O[C@H](Cc1ccccc1)C(=O)O [Ertiprotafib, reference compound]
[1]
  inhibition type: noncompetitive inhibition
[2]
  IC50: > 100 µM
[3]
  inhibition type: uncompetitive
  Km: 940 ± 190 µM
  Vmax: 1.71 ± 0.24 mM/min

## CC1(C)c2[nH]c3ccc(C(F)(F)F)cc3c2C[C@]2(C)[C@H]3C(=O)C=C4[C@@H]5C[C@@](C)(C(=O)O)CC[C@]5(C)CC[C@@]4(C)[C@]3(C)CC[C@@H]12 [FC-114, reference compound]
[4]
  antihyperglycemic effects: superior antihyperglycemic effects compared to glibenclamide and acarbose, but did not outperform pioglitazone
[5]
  CC50: 59.5 ± 3 µM
[6]
  IC50: 1.75 ± 0.08 µM

## O=C(O)C(=O)Nc1sc2c(c1C(=O)O)CCNC2 [TCS401]
[7]; footnote c: IC50 values retrieved from the reference, previously tested by our group
  IC50: 6.7 ± 0.6 µM
[8]
  IC50: 8.1 ± 1 µM
[9]
  IC50: 12.4 ± 1 µM

## C[C@H]1[C@H](C)CC[C@]2(C(=O)O)CC[C@]3(C)C(=CC[C@@H]4[C@@]5(C)CC[C@H](O)C(C)(C)[C@@H]5CC[C@]43C)[C@H]12 [Ursolic acid]
[7]; footnote b: IC50 values retrieved from the reference
  IC50: > 400 µM
[10]
  HepG2 cell viability: No significant differences
[11]
  AKT phosphorylation (p-AKT) levels: did not show significant changes
  PTP1B levels: neither metformin, ursolic acid, nor the GA derivatives significantly reduced PTP1B levels
  p-IRS levels: did not show significant changes
  p-STAT3 levels: did not show significant changes
[3]
  inhibition type: mixed-type
  Km: 1700 ± 330 µM
  Vmax: 0.63 ± 0.08 mM/min
[3]; listed as ursolic acid
  inhibition type: mixed
[12]
  AKT phosphorylation (p-AKT) levels: did not show significant changes
  PTP1B levels: neither metformin, ursolic acid, nor the GA derivatives significantly reduced PTP1B levels
  p-IRS levels: did not show significant changes
  p-STAT3 levels: did not show significant changes

## CC1(C)c2c(cnn2-c2ccc(C(=O)O)cc2)C[C@]2(C)[C@H]3C(=O)C=C4[C@@H]5C[C@@](C)(C(=O)O)CC[C@]5(C)CC[C@@]4(C)[C@]3(C)CC[C@@H]12 [compound 5e, (20β)-2′-(4-Carboxyphenyl)-11-oxo-2′H-oleana-2,12-dieno[3,2-c]pyrazol-29-oic Acid]
[13]
  stability during evaluation: unstable and rapidly degraded during evaluation
